This passage reports IC50 results from patent US12454531B2, “Substituted piperazine derivatives useful as T cell activators” (BRISTOL-MYERS SQUIBB COMPANY, priority 2019, dated 2025).

By IC50 is commonly meant the concentration that inhibits the measured activity by half.

DGKα, sequence (P23743 other isoform, or with tags, fused parts or gaps): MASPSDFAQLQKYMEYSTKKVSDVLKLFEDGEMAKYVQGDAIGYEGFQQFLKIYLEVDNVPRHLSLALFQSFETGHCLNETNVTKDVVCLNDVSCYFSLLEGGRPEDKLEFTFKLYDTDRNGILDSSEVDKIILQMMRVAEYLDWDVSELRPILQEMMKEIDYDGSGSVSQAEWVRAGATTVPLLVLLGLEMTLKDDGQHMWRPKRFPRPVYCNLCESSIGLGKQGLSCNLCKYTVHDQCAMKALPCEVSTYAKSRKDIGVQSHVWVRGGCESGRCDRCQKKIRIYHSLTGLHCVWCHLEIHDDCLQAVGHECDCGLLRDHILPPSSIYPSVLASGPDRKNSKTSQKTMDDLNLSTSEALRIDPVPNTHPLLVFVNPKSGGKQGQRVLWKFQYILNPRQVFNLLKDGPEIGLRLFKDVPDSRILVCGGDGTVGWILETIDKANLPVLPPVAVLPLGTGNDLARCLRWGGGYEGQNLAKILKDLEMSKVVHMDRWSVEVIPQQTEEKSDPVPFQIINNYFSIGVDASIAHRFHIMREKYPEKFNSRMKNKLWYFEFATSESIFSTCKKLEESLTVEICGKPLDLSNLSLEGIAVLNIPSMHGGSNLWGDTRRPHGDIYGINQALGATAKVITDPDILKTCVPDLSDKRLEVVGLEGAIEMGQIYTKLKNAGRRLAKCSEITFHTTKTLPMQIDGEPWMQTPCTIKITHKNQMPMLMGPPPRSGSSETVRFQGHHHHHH

The experiment concerns the target DGKα (Homo sapiens (Human), UniProt P23743). The experiment in a line: Assay 2: In Vitro DGK Inhibition Assays, Method B (DGKα ADPGLO). Type of experiment: biochemical. The note with it: 150 μM ATP. The procedure: Assay 2: In Vitro DGK Inhibition Assays—Method B
The DGKα and DGKζ reactions were performed using either extruded liposome (DGKα and DGKζ LIPGLO assays) or detergent/lipid micelle substrate (DGKα and DGKζ assays). The reactions were carried out in 50 mM MOPS pH 7.5, 100 mM NaCl, 10 mM MgCl2, 1 μM CaCl2), and 1 mM DTT (assay buffer). The reactions using a detergent/lipid micelle substrate also contained 50 mM octyl B-D-glucopyranoside. The lipid substrate concentrations were 11 mM PS and 1 mM DAG for the detergent/lipid micelle reactions. The lipid substrate concentrations were 2 mM PS, 0.25 mM DAG, and 2.75 mM PC for the extruded liposome reactions (5 mM total lipid). The reactions were carried out in 150 μM ATP. The enzyme concentrations for the DGKα and DGKζ were nM.
The compound inhibition studies were carried out as follows: 25 nL droplets of each test compound (top concentration 10 mM with 11 point, 3-fold dilution series for each compound) solubilized in DMSO were transferred to wells of a white 1536 well plate (Corning 3725). A 5 mL enzyme/lipid substrate solution at 2× final reaction concentration was prepared by combining 2.5 mL 4× enzyme solution (20 nM DGKα or DGKζ (prepared as described below) in assay buffer) and 2.5 mL of either 4× liposome or 4× detergent/lipid micelle solution (compositions described below) and incubated at room temperature for 10 minutes. Next, 1 μL 2× enzyme/lipid substrate solution was added to wells containing the test compound and reactions were initiated with the addition of 1 μL 300 uM ATP. The reactions were allowed to proceed for 2 hr, after which 2 μL Glo Reagent (Promega V9101) was added and incubated for 40 minutes. Next, 4 μL Kinase Detection Reagent was added and incubated for 30 minutes. Luminescence was recorded using an EnVision microplate reader. […] The compounds were evaluated at 11 concentrations to determine IC50.
The detergent/lipid micelle was prepared by combining 15 g phosphatidylserine (Avanti 840035P) and 1 g diacylglycerol (8008110) and dissolving into 150 mL chloroform in a 2 L round bottom flask. Chloroform was removed under high vacuum by rotary evaporation. The resulting colorless, tacky oil was resuspended in 400 mL 50 mM MOPS pH 7.5, 100 mM NaCl, 20 mM NaF, 10 mM MgCl2, 1 μM CaCl2), 1 mM DTT, and 200 mM octyl glucoside by vigorous mixing. The lipid/detergent solution was split into 5 mL aliquots and stored at −80° C.
The lipid composition was 5 mol % DAG (Avanti 8008110), 40 mol % PS (Avanti 840035P), and 55 mol % PC (Avanti 850457) at a total lipid concentration of […] for the liposome solution. The PC, DAG, and PS were dissolved in chloroform, combined, and dried in vacuo to a thin film. The lipids were hydrated to 20 mM in 50 mM MOPS pH 7.5, 100 mM NaCl, 5 mM MgCl2, and were freeze-thawed five times. The lipid suspension was extruded through a 100 nm polycarbonate filter 10-12 times. Dynamic light scattering was carried out to confirm liposome size (50-60 nm radius). The liposome preparation was stored at 4° C. for as long as four weeks.
Human MA-hDGKα-(S9-S727)-Ct-TVMV-His-pFBgate and full length human DGK-ζ-transcript variant-2-TVMV-His-pFBgate baculovirus samples were generated using the Bac-to-Bac baculovirus expression system (Invitrogen) according to the manufacturer's protocol (note: MA- in name of DGKα reagents indicates two extra amino acids added prior to Ser-9). The DNA used for expression of the DGK-α(9-727) and DGK-C have SEQ ID NOs: 5 and 3, respectively. […]
In general terms: In ADP-Glo the light output rises with the ADP produced.
`CC[C@H]1CN(C(C(=O)N2CCOCC2)c2ccc(C(F)(F)F)cc2)[C@H](CC)CN1c1nc(=O)n(C)c2ccc(C#N)nc12` (single isomer, unassigned) [Example 53] registered an IC50 of 1970 nM.
In turn, `CC[C@H]1CN(C(C(=O)N2CCOCC2)c2ccc(C(F)(F)F)cc2)[C@H](CC)CN1c1nc(=O)n(C)c2ccc(C#N)nc12` (single isomer, unassigned) [Example 54] showed an IC50 of 260 nM.
Compound `CC[C@H]1CN(C(C(=O)NCCOC)c2ccc(C(F)(F)F)cc2)[C@H](CC)CN1c1nc(=O)n(C)c2ccc(C#N)nc12` (single isomer, unassigned) [Example 56] gave an IC50 of 7500 nM.
